Measurements from patent US9939427B2, “Method for evaluating the scent performance of perfumes or perfume mixtures” (Symrise AG, priority 2013, dated 2018).
“Also recorded” adds a separate entry of the source.

What was measured:
Type in all cases: cell-based
[1] = target: T1, OR2L8 (Homo sapiens, UniProt Q8NGY9); test: Ca-imaging of OR2L8-transfected HEK293 cells; set-up: key to OR2L8 responded to odorant: ▪: 18 olfactory receptors responded to 32 odorants in related with specific anosmia
T1 construct: specific primers, which amplify the complete open reading frame; expressed in transfected cells; host or cells: HEK293
T1 sequence (Q8NGY9 1-312): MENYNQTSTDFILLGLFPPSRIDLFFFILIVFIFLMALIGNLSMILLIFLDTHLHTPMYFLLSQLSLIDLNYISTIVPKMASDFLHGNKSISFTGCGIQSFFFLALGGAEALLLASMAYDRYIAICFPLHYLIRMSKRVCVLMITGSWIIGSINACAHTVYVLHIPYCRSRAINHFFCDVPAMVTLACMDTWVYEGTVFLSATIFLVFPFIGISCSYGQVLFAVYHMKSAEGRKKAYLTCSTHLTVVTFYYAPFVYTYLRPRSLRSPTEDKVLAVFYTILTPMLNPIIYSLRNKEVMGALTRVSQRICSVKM
Method: (§1) HEK293 cells were cultivated in Petri dishes (Ø35 mm) as previously described (Benbernou et al. 2007). We grow up HEK293 cells in culture medium containing standard DMEM with 10% heat-inactivated fetal bovine serum, 2 mM L-glutamine, 100 units/ml penicillin, and 100 units/ml streptomycin in a humidified atmosphere (37° C., 5% CO2). After 2-3 days, the transfection process was carried out, whereby the cell culture was 70-80% confluent. The calciumphosphate method was applied to transfect DNA plasmid transiently in HEK293 cells in case of Ca-imaging method.
(§2) Calcium cations and phosphate anions created crystal precipitations coupled with DNA which could invade into the cells through endocytosis. Cells were transiently transfected with plasmid DNA which consists of pCI expression vector and PCR-amplified full-length cDNA of olfactory receptors candidates, and also Gα15, RTP1, Myr-Ric8A, HSC70, and m-Cherry as cofactors. The precipitation could be created after 15-20 min, with dropping the transfection solution on HEK293 cells. Before measuring by Ca-imaging cells were incubated 48-60 hours at 370 C, 5% CO2. Cationic liposome-mediated transfection method was applied to transfect DNA plasmid transiently in HANA3A cells in case of CRE-Luciferase and CRE-SEAP assays.
(§3) Calcium imaging of the transfected HEK293 cells was done by using chambers determinate an inverted microscope (Olympus; IX70) using a 10× objective (CPIanFL N Olympus). Fluorescence emission was determined every 4 s by using a CCD camera (Charge Coupled Device, C9100 Hamamatsu). The capillary tube which was responsible to supply odorants was generated closely above the cells. The columns filled with odorants, DMSO and ATP. Odorants were manually monitored to drop each 4-5 s to transfected cells. Solutions with drop wise form spread on HEK293 cells in 35 mm dishes.
(§4) In experiments, Fura-2 Acetoxymethylester (Fura-2/AM) was applied. The non-polar Fura2/AM is fluorescent but not yet calcium-sensitive. Once diffuses into cell plasma, Fura-2/AM is hydrolyzed to Fura-2 which is calcium-sensitive and functions as Ca2+ chelator. Regardless of the presence of calcium, Fura-2 emits at the wavelength of 510 nm. Once Fura-2 binds to free intracellular Ca2+ in cell plasma, its ratio of excitation at wavelengths of 340 nm and 380 nm is changed and correlated to the amount of intracellular Ca2+. According to this feature, the analysis of 340/380 nm excitation ratio for Fura-2 allows to quantify intracellular calcium levels.
(§5) In preparation for Ca-imaging measurements, transfected HEK293 cells were added 3 it Fura2/AM (3 μM) and incubated 30-45 min at 370 C, 5% CO2. After this step, experiments were carried out in a dark condition (Fura-2 is light-sensitive). After the incubation, medium of cell culture was replaced with 2 ml Ringer's solution.
(§6) Odorants were freshly prepared with DMSO as 1 M stocks solutions. Six mixtures (200 μM each chemical) were applied to cells sequentially (20 s each mixture/30 s Ringer). Those ORs tested with single odorants that had generated a response to odorant mixture group previously. Odorants were prepared in 100-200 μM concentration.
(§7) Ringer's solution was used for washing cells between measuring by two different odorants. Positive response was determined by the timing of the response, the strength of the response (more than twofold higher than the noise amplitude of the baseline), and the shape of the response curve (sharp rise in curve with gradual recovery). The typical shape of response curves was established by observing responses to repeated stimulation with 200 μM of odorants. After testing with single odorants at 100 μM, stimulating odorants were often retested at 200 μM concentrations. To confirm the result of every receptor that produced a significant response curves, the experiment was repeated for twelve times. Finally, cells were exposed to ATP (0.25 mM) which could activate P2Y receptor channel and induce Ca2+ influx into cells. […]

[2] = target: T2, OR4K5 (Homo sapiens, UniProt Q8NGD3); test: Ca-imaging of OR4K5-transfected HEK293 cells; set-up: key to OR4K5 responded to odorant: ▪: 18 olfactory receptors responded to 32 odorants in related with specific anosmia
T2 construct: specific primers, which amplify the complete open reading frame; expressed in transfected cells; host or cells: HEK293
T2 sequence (Q8NGD3 1-323): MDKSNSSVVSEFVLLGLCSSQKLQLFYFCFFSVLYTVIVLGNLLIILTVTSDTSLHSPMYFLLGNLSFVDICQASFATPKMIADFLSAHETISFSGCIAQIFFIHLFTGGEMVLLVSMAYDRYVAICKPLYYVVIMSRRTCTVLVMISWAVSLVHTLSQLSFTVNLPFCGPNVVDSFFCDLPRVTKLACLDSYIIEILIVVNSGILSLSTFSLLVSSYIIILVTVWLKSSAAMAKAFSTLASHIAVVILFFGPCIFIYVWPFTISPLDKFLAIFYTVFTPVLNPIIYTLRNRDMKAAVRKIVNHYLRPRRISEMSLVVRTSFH
Method: as §1
as §2, with “Cationic liposome-mediated transfection method was applied to transfect DNA plasmid transiently in HANA3A cells in case of CRE-Luciferase and CRE-SEAP assays.” left out
Calcium imaging of the transfected HEK293 cells was done by using chambers determinate an inverted microscope (Olympus; IX70) using a 10× objective (CPIanFL N Olympus). Fluorescence emission was determined every 4 s by using a CCD camera (Charge Coupled Device, C9100 Hamamatsu). […] Odorants were manually monitored to drop each 4-5 s to transfected cells. […]
In experiments, Fura-2 Acetoxymethylester (Fura-2/AM) was applied. […] According to this feature, the analysis of 340/380 nm excitation ratio for Fura-2 allows to quantify intracellular calcium levels. […]
Ringer's solution was used for washing cells between measuring by two different odorants. Positive response was determined by the timing of the response, the strength of the response (more than twofold higher than the noise amplitude of the baseline), and the shape of the response curve (sharp rise in curve with gradual recovery). […]

[3] = system: HEK293 cells transfected with all cofactors and pCI plasmids without ORs; test: Ca-imaging of control HEK293 cells without OR; conditions: odorant 200 μM, three times of measuring (Table 4, FIG. 5)
Method: as §1, §2, §3, §4, §5, §6, §7

[4] = target: T1, OR2L8; test: CRE-luciferase assay, OR2L8 in HANA3A cells; conditions: 50 μM, 100 μM and 150 μM; normalized to DMSO
Method: as §2, with “assays. […]” for “assays.”
ORs responded by Ca-imaging with seven separate odorant mixtures formed from 66 odorants. […] Transfected HANA3A cells on poly-D-lysine-coated 96 well plates are ready for stimulation after 24 h. […] Measuring by plate reader (Luminometer). • 6. […] Measuring by plate reader (Luminometer). • 8. According to manufacturer's protocols for measuring luciferase and renilla activities, calculate normalized luciferase activity with using the formula (Ln-Lmin)/(Lmax-Lmin), where Ln is the luminescence of firefly in response to the odorant, L min is the minimum luciferase value on a plate, and L max is the maximum luciferase value on plate. […]

Ysamber K [Yasamber K]
OR2L8 responded to odorant ([1]; Ca-imaging, HEK293 cells, individual odorant 200 μM, significant response p<0.05): ▪
Response of OR2L8 to odorant, in words ([1]; Ca-imaging, single odorants 200 μM): Ca2+ concentration increased; also recorded: detected
Number of cell responses, Experiment (OR2L8) ([1]; odorant 200 μM, approximately 2000 transfected cells in three times of measuring (Table 4, FIG. 5)): 10
OR4K5 responded to odorant ([2]; HEK293 cells, individual odorant 200 μM, significant response p<0.05): ▪
Response of OR4K5 to odorant, in words ([2]; single odorants 200 μM): detected
Number of cell responses, Control [3]: 2
CRE-luciferase (cAMP assay) response of OR2L8 [4]: weak response
